Experimental findings from patent publication US11180475B2, “Crystal form I of a 5-aminopyrazole carboxamide compound as BTK inhibitor” (SinoMab BioScience Limited, priority 2017, dated 2021) are described below.

The IC50 is the concentration needed to halve the response being measured. A word on the bioavailability: it is the share of a dose that reaches the circulation, judged against a reference dose that is usually intravenous. A high value points to good availability.

The structures appear in SMILES notation. A value given as a limit tells only on which side of the number the result lay.

One data set concerns the target Recombinant Btk (Homo sapiens, UniProt Q06187). Briefly: Kinase activity (BTK) inhibition assay, TR-FRET. The format is biochemical. As to conditions: read-out: IC50, inhibitory effect on BTK kinase activity. Here is the method: The inhibitory effects of compound (R)-5-amino-3-(4-((5-chloropyridin-2-yl)oxy)phenyl)-1-(4-cyano-4-azaspiro[2.5]oct-6-yl)-1H-pyrazole-4-carboxamide (I) on BTK kinase activity were tested in an assay based on a time resolved fluorescence resonance energy transfer (TR-FRET) method. Recombinant Btk was pre-incubated with the compound disclosed herein in an assay buffer containing 50 mM Tris pH 7.4, 10 mM MgCl2, 2 mM MnCl2, 0.1 mM EDTA, 1 mM DTT, 20 nM SEB, 0.1% BSA, 0.005% tween-20 at room temperature for 1 hour. The reaction was initiated by the addition of ATP (at the ATP Km concentration) and the peptide substrate (Biotin-[…]-NH2). After incubation at room temperature for 1 hour, an equal volume of stop solution containing 50 mM HEPES pH 7.0, 800 mM KF, 20 mM EDTA, 0.1% BSA, p-Tyr66 antibody linked with Eu cryptate and streptavidin-labeled XL665 was added to stop the reaction. The plate was incubated at room temperature for an additional hour and then the TR-FRET signal was read on a BMG PHERAstar FS instrument (ex337 nm, em 620 nm/665 nm). Based on the ratio of the signal of fluorescence at 615 nm to 665 nm, the residual enzyme activity was calculated with an increased compound concentration. IC50 of each compound was obtained by fitting the data to the four-parameter equation of Graphpad Prism software.
Background: In TR-FRET formats the signal depends on donor and acceptor labels being close together.

A further data set relates to normal human B cells. Briefly: B cell inhibition assay (CD69, flow cytometry). It counts as cell-based. As to conditions: 1 hour exposure, washed off, IgM F(ab')2 stimulation 18 hours, read-out: IC50, inhibitory activity on B cells. Here is the method: Temporary exposure to a BTK inhibitor in vitro is sufficient to inhibit B cell activation in normal human B cells.
B cells were obtained by purification from healthy donor blood through negative selection using the RosetteSep human B Cell Enrichment Mix. Cells were plated in a growth medium (10% RPMI+10% fetal bovine serum) and the inhibitor was added at specified concentrations. After incubation at 37° C. for 1 hour, the cells were washed three times, and each wash was used for 8-fold dilution in the growth medium. The cells were then stimulated with 10 μg/mL IgM F(ab′)2 at 37° C. for 18 hours. Cells were subsequently stained with an anti-CD69-PE antibody and analyzed by flow cytometry using standard conditions.

Another data set has as its system T cells. Briefly: T cell inhibition assay (CD69, flow cytometry). The format is cell-based. As to conditions: Homo sapiens, 1 hour exposure, washed, anti-CD3/CD28 beads 18 hours, read-out: IC50, inhibitory activity on T cells. Here is the method:
T cells were obtained by purification of healthy donor blood through negative selections using the RosetteSep Human T Cell Enrichment Mix. Cells were plated in a growth medium (10% RPMI+10% fetal bovine serum) and the inhibitor was added at specified concentrations. After incubating for 1 hour at 37° C., the cells were washed three times, and each wash was used for 10-fold dilution in the growth medium. The cells were then stimulated with anti-CD3/CD28 coated beads (bead/cell ratio 1:1) for 18 hours at 37° C. Cells were subsequently stained with an anti-CD69-PE antibody and analyzed by flow cytometry using standard conditions. According to the above experimental methods, compound (R)-5-amino-3-(4-((5-chloropyridin-2-yl)oxy)phenyl)-1-(4-cyano-4-azaspiro[2.5]oct-6-yl)-1H-pyrazole-4-carboxamide (I) has very low or no inhibitory activity on T cells, with an IC50 values higher than 4000 nM.
In general terms: A flow cytometer gives signals particle by particle.

For data set [1], the system named is B cells in human whole blood. Briefly: Inhibition assay on human whole blood B cells (CD69). Particulars: B-cell, anti-human IgM F(ab')2 stimulation 20 hours, read-out: IC50, inhibitory activity on B cells in human whole blood. It counts as cell-based. How it is done:
Human whole blood (hWB) was obtained from healthy volunteers and blood was collected by venipuncture into a heparin sodium-anticoagulant Vacutainer tube. Test compounds were diluted 10 times in PBS to the required initial drug concentration), followed by three-fold serial dilutions with 10% DMSO in PBS to obtain a 9-point dose response curve. 5.5 μL of each diluted compound was added to the aiil 96-well V-bottom plate in duplicate; 5.5 μL of 10% DMSO in PBS was added to control and non-stimulated wells. Human whole blood (100 μL) was added to each well, and after mixing, the plates were incubated for 30 minutes at 37° C. and in 5% CO2, 100% humidity. An anti-human IgM F(ab′)2 (Southern Biotech) (10 μL of 500 μg/mL solution, 50 μg/mL final concentration) was added to each well (except for non-stimulated wells) with vortexing, and the plate was further incubated for another 20 hours. After 20-hour incubation, samples were incubated with 20 μL of fluorescent probe-labeled APC mouse anti-human CD69 (BD Pharmingen) for 30 minutes at 37° C., 5% CO2, 100% humidity. Induced controls, unstained, and single-stained samples were included for compensation and initial voltage settings. […] Results were initially analyzed using FACS analysis software (Flow Jo). The IC50 values were then calculated using XLfit v3, Equation 201.

The nature of data set [2]: Stability study in liver microsomes. It counts as in vitro ADME, human, dog, rat, and mouse. Particulars: 60 minutes incubation, 37° C., liver microsomes of various species. Here is the method:
1. Compound (R)-5-amino-3-(4-((5-chloropyridin-2-yl)oxy)phenyl)-1-(4-cyano-4-azaspiro[2.5]oct-6-yl)-1H-pyrazole-4-carboxamide (I) was dissolved in acetonitrile to prepare a stock solution having a concentration of 0.5 mM.
2. 2 μL of stock solution was added to a 1.5 ml centrifuge tube, and then 148 μL of phosphate buffer (100 mM, pH 7.4) and 10 μL of liver microsome suspension (the protein concentration was 20 mg/ml) [BD Gentest] were added. The liver microsomes were derived from the species of human, dog, rat, and mouse; The control group was added with 158 μL of phosphate buffer (100 mM, pH 7.4).
3. The mixture obtained in step 2 was pre-incubated in a 37° C. water bath for 3 minutes; then 40 μL of NADPH generating system (containing NADP+: 6.5 mM, glucose 6-phosphate: 16.5 mM, MgCl2: 16.5 mM, glucose 6-phosphate dehydrogenase: 2 U/ml) was added to initiate the reaction. The reaction system was incubated in a 37° C. water bath for 1 hour.
4. After the reaction was carried out for 1 hour, the centrifuge tube was removed from the water bath, and the reaction was terminated by adding 400 μL of acetonitrile, followed by vortexing for 3 minutes. […]
6. After 60 minutes of incubation, the percentage of remaining drug in the incubation system was calculated as follows: Remaining Drug (%)=Cr/C0×100%
Background: Microsomes from liver hold many membrane-bound enzymes, among them those of drug oxidation.

Data set [3] deals with five CYP450 enzymes in human liver microsomes. Briefly: Inhibition of CYP enzymes, cocktail probe substrates. It counts as in vitro ADME. Particulars: CYP1A2, CYP2D6, CYP2C9, CYP2C19, CYP3A4. Here is the method:
METHOD: This experiment simultaneously determined the inhibitory effects of a compound on five CYP450 enzymes in human liver microsomes using the cocktail probe substrates approach. The human microsomes were from BD Gentest.
The reaction was carried out in 100 mM of phosphate buffer, with a total volume of 200 μL. The concentration of microsomes in the reaction system was 0.25 mg/mL, and the concentration of the test compound was 20 μM, 6.67 μM, 2.22 μM, 0.74 μM, and 0.25 μM. The specific probe substrates and concentration were phenacetin (CYP1A2) 40 μM, dextromethorphan (CYP2D6) 5 μM, diclofenac (CYP2C9) 10 μM, S-mephenytoin (CYP2C19) 40 μM, testosterone (CYP3A4) 80 μM, respectively. The mixture was pre-incubated in a 37° C. thermostatic shaker for 5 minutes, and the NADPH-generating system (containing 1.3 mM NADP+, 3.3 mM glucose 6-phosphate, […] glucose 6-phosphate dehydrogenase, 3.3 mM MgCl2) was added to start the reaction. After incubation for 45 minutes, the reaction was stopped by adding an equal volume of acetonitrile. The tube was vortexed and centrifuged at 13,000 rpm. The resulting supernatant was subjected to LC-MS-MS to determine the amount of produced metabolites. […] The final result of this experiment is the calculated half inhibitory concentration IC50 value.

The next data set can be described thus: Pharmacokinetics in rats. The format is in vivo. As to conditions: rat, plasma, oral; male SD rats, p.o. 10 mg/kg vs i.v. 2 mg/kg. Here is the method:
1. Male SD rats (HFK) were acclimatized in the laboratory for 7 days after arrival.
2. […], 3 animals in each group. One group was dosed by oral gavage (p.o.), and the other group was dosed by tail vein injection (i.v.). Rats in the p.o. group were fasted overnight before drug administration.
3. After drug administration, blood samples were collected from the rats via the posterior orbital venous plexus approach at the following time points: I.V.: (before drug administration), 0.08 hours, 0.25 hours, 0.5 hours, 1 hour, 2 hours, 4 hours, 8 hours, 24 hours; P.O.: 0.08 hour, 0.25 hour, 0.5 hour, 1 hour, 2 hours, 4 hours, 8 hours, 24 hours. About 300 μl of blood were collected at each collection time point.
4. The collected blood samples were centrifuged at 12000 rpm for 5 minutes at 4° C., and then the upper plasma samples were collected and stored in a refrigerator at −20° C.
6. […]
The pharmacokinetic parameters were calculated using the pharmacokinetic professional software WinNonlin [Model: Phoenix™ WinNonlin® 6.1; Manufacturer: Pharsight Corporation]. […]

The target of a further data set is hERG (Homo sapiens, UniProt Q12809). Briefly: hERG binding assay (Dofetillide method). As to conditions: read-out: IC50 for hERG inhibition. From the text:
The IC50 value of a compound for hERG inhibition can be determined according to the method described in the patent application US20050214870 A1.

Data set [4] concerns diffuse large B-cell lymphoma cell line TMD-8. Briefly: Pharmacodynamic assay, TMD-8 xenograft. It counts as in vivo. Particulars: NOD.SCID mice, p.o. daily for 21 days. How it is done: Severe immunodeficiency NOD.SCID mice were purchased from Beijing Vital River Laboratory Animal Technology Co., Ltd., and were housed in SPF grade animal room. After TMD-8 cells were cultured to the sufficient amount, the cells were collected by centrifugation and washed twice with PBS. Finally, the cells were resuspended in serum-free RPMI 1640 medium and Matrigel (1:1 v/v). 0.2 ml of cell suspension was injected subcutaneously on the right flank of each mouse using 1 ml syringe and 25G syringe needle. The tumor size was measured with a caliper after about one week post injection. The tumor volume was calculated according to the following formula: tumor volume=(length×width^2)/2. When the tumor volume reached about 100-200 mm^3, the mice were grouped and p.o. administered daily for 21 days.

Chain of hERG (Q12809 whole entry): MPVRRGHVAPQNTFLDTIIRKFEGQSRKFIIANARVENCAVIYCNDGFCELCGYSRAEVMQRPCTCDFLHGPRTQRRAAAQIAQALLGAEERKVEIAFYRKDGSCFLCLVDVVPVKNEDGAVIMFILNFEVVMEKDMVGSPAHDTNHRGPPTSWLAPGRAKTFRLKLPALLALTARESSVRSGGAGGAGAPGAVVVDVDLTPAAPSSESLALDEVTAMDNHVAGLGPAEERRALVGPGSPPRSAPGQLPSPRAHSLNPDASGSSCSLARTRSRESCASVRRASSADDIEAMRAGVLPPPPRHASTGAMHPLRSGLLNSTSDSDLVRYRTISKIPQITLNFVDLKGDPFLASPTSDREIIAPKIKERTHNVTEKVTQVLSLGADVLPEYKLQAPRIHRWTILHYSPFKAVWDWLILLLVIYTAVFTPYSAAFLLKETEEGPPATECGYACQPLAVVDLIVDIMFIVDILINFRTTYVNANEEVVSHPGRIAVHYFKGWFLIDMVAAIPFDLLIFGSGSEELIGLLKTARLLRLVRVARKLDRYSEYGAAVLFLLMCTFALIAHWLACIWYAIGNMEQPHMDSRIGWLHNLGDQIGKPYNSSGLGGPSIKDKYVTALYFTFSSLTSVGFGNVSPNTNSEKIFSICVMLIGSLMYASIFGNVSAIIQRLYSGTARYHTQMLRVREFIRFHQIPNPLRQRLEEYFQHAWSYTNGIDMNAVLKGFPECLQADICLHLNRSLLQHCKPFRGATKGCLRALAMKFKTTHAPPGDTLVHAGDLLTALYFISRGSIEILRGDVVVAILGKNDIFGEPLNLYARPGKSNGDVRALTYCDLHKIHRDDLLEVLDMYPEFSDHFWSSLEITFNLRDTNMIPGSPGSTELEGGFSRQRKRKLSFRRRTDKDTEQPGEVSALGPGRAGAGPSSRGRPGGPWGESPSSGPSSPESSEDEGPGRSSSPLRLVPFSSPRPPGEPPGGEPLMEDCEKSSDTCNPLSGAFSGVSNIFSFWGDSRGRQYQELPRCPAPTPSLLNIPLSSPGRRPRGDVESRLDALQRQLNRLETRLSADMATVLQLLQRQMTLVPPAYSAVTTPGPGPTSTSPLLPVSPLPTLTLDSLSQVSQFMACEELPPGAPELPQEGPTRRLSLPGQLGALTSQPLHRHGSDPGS
Chain of Recombinant Btk (Q06187 whole entry): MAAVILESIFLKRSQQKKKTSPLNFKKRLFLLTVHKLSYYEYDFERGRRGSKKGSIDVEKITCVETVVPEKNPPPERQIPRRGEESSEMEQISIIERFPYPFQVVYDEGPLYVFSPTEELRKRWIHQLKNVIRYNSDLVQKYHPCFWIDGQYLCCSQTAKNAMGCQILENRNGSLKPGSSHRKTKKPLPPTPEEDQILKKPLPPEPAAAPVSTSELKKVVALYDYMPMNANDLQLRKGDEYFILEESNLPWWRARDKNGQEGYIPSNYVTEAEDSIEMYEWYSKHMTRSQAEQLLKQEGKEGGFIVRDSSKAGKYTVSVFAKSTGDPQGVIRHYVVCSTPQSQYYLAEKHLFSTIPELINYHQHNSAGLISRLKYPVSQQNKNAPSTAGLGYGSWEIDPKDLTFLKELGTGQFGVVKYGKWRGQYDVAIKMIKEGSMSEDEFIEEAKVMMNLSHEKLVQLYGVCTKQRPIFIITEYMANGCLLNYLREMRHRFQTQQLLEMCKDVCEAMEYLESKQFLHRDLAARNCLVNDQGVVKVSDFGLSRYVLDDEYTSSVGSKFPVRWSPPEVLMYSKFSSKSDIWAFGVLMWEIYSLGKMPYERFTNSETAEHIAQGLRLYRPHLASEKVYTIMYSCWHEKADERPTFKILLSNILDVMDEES

Turning to `N#CN1C[C@H](n2nc(-c3ccc(Oc4ccc(Cl)cn4)cc3)c(C(N)=O)c2N)CCC12CC2` [Compound I, (R)-5-amino-3-(4-((5-chloropyridin-2-yl)oxy)phenyl)-1-(4-cyano-4-azaspiro[2.5]oct-6-yl)-1H-pyrazole-4-carboxamide], the IC50 on Recombinant Btk is < 0.1 µM; in the data set on normal human B cells, < 0.01 µM; in the data set on T cells, > 4 µM; in data set [1], < 0.2 µM; on hERG it was > 1 µM. Further, the “Remaining Drug (%), residual percentage in liver microsomes” value in [2] is on record as > 30%. The “inhibitory effect on various CYP enzymes” value in data set [3] is reported as “very low or no inhibitory effect”. Also, the bioavailability in the data set “Pharmacokinetics in rats” was > 40%. In [4], the “inhibition of TMD-8 tumor growth in vivo” value is recorded as “significantly inhibited the growth”.
